Test results: PubChem BioAssay (NCI)
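Step 1: Grow cells in 96-well plates. Step 2: Expose to compound for 48 hours at 5 concentrations. Step 3: Interpolate endpoints linearly; if unreached, use highest concentration. TGI: total growth inhibition.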

The compounds below were run on HCT-15 colon (assay: inhibition of tumour cell growth, NCI panel, 48 h).
C/C=C/C(CC(O)(C(F)(F)F)C(F)(F)F)=N/NC(N)=S gave a TGI greater than 10 µM.
With O=C1/C(=C/c2ccc(Br)s2)NC(=S)N1c1ccccc1 the TGI was greater than 100 µM.
In the case of Fc1ccc2c(c1)nc1n2C(c2c(Cl)cccc2Cl)SC1 (configuration not stated), the TGI is reported as 24.4 µM.
Work on CC(C)C1=CC23CCC4C(C)(C(=O)O)CCCC4(C)C2CC1C1C(=O)N(c2ccc(Cc4ccc(N5C(=O)C6C7CC8C9(C)CCCC(C)(C(=O)O)C9CCC8(C=C7C(C)C)C6C5=O)cc4)cc2)C(=O)C13 (configuration not stated) yielded a TGI of 24.5 µM.
Work on O=C(Nc1ccccc1)c1cc(S(=O)(=O)NC2=NC(c3ccccc3)c3cc(Cl)ccc3N2)c(SSc2cc(Cl)c(C(=O)Nc3ccccc3)cc2S(=O)(=O)NC2=NC(c3ccccc3)c3cc(Cl)ccc3N2)cc1Cl (configuration not stated) yielded a TGI greater than 100 µM.
For CCOC(=O)Nc1[nH]cc(-c2ccccc2)c1C#N, the TGI was greater than 100 µM.
COc1ccc(C2SC(N)=Nc3c2c(C)nn3C(=O)c2ccncc2)cc1OC (configuration not stated) was tested, and the TGI was greater than 10 µM.
Work on COC(=O)c1c(O)ccc2c1c1c(n2Cc2cc(OC)cc(OC)c2)C(=O)c2ccccc2C1 yielded a TGI greater than 100 µM.
O=C1Nc2cccc(Cl)c2/C1=C\c1c(Cl)nc2n1CCS2 gave a TGI greater than 100 µM.
O=C(N/N=C(\c1ccccc1)c1ccccn1)NC1CCCCC1 was tested, and the TGI was greater than 100 µM.
C=CCc1cccc2cc(C(=O)NCc3ccccc3)c(=N)oc12 showed a TGI greater than 100 µM.
For NC(N)=NCCN1CC2CCC(CC2)C1, the TGI was greater than 100 µM.
COc1cc(Nc2nc3ccccc3nc2C(=O)O)cc(OC)c1OC showed a TGI greater than 100 µM.
In the case of COC(=O)c1ccc(/C=C/c2cc(O)ccc2O)cc1, the TGI is reported as 12.2 µM.
For Cc1c(C)c2c(c(N)c1C#N)C(=O)N(NC(=O)c1ccccc1)C2=O, the TGI was greater than 100 µM.
Compound CC(=O)OC(OC(C)=O)c1ccc2ccc3cccc4ccc1c2c34 has a TGI greater than 100 µM.

These compounds were tested on SK-OV-3 ovarian (assay: inhibition of tumour cell growth, NCI panel, 48 h).
In the case of O=C1C=CC(=O)c2c1ccc1c3ccccc3n(CCCCCn3c4ccccc4c4ccc5c(c43)C(=O)C=CC5=O)c21, the TGI is reported as greater than 100 µM.
With Cc1ccc(/C=N/Nc2cc(C)c3cccc(C)c3n2)s1 the TGI was 33.5 µM.
For O=C1C2SC34c5c2c2ccccc2n5CCC3CCCN14 (configuration not stated), the TGI was greater than 100 µM.
Compound CC(=O)N(C(C)=O)c1ncc(-n2nc(-c3ccccc3)cc2-c2ccccc2)c(-c2ccccc2)n1 has a TGI greater than 10 µM.
Compound CC(=O)Nc1sc(Br)cc1S(=O)(=O)c1ccc(Cl)cc1 has a TGI greater than 100 µM.
With O=C1Sc2cc3ccccc3cc2C(=O)Sc2ccc(Br)cc21 the TGI was 29.3 µM.
Compound O=C(/C=C/c1ccccc1)Oc1cccc(O)c1 has a TGI greater than 100 µM.
O=C1c2ccccc2C(=O)c2c(NCC(O)CO)ccc(NCC(O)CO)c21 (configuration not stated) showed a TGI greater than 100 µM.
With CC1(C)/C(=N\NC(N)=O)C2CCC1C2 (configuration not stated) the TGI was greater than 100 µM.
C/C=C/C(CC(O)(C(F)(F)F)C(F)(F)F)=N/NC(N)=S showed a TGI greater than 10 µM.
Compound O=C1/C(=C/c2ccc(Br)s2)NC(=S)N1c1ccccc1 has a TGI greater than 100 µM.
Fc1ccc2c(c1)nc1n2C(c2c(Cl)cccc2Cl)SC1 (configuration not stated) showed a TGI of 28.3 µM.
O=C(Nc1ccccc1)c1cc(S(=O)(=O)NC2=NC(c3ccccc3)c3cc(Cl)ccc3N2)c(SSc2cc(Cl)c(C(=O)Nc3ccccc3)cc2S(=O)(=O)NC2=NC(c3ccccc3)c3cc(Cl)ccc3N2)cc1Cl (configuration not stated) showed a TGI greater than 100 µM.
Work on CCOC(=O)Nc1[nH]cc(-c2ccccc2)c1C#N yielded a TGI greater than 100 µM.
For COc1ccc(C2SC(N)=Nc3c2c(C)nn3C(=O)c2ccncc2)cc1OC (configuration not stated), the TGI was greater than 10 µM.
For COC(=O)c1c(O)ccc2c1c1c(n2Cc2cc(OC)cc(OC)c2)C(=O)c2ccccc2C1, the TGI was greater than 100 µM.
In the case of O=C1Nc2cccc(Cl)c2/C1=C\c1c(Cl)nc2n1CCS2, the TGI is reported as greater than 100 µM.
O=C(N/N=C(\c1ccccc1)c1ccccn1)NC1CCCCC1 gave a TGI greater than 100 µM.
For C=CCc1cccc2cc(C(=O)NCc3ccccc3)c(=N)oc12, the TGI was greater than 100 µM.
For NC(N)=NCCN1CC2CCC(CC2)C1, the TGI was greater than 100 µM.
COc1cc(Nc2nc3ccccc3nc2C(=O)O)cc(OC)c1OC gave a TGI greater than 100 µM.
In the case of CC(=O)OC(OC(C)=O)c1ccc2ccc3cccc4ccc1c2c34, the TGI is reported as 53.4 µM.

The compounds below were run on HS 578T breast (assay: inhibition of tumour cell growth, NCI panel, 48 h).
For O=C1C=CC(=O)c2c1ccc1c3ccccc3n(CCCCCn3c4ccccc4c4ccc5c(c43)C(=O)C=CC5=O)c21, the TGI was greater than 78.7 µM.
Cc1ccc(/C=N/Nc2cc(C)c3cccc(C)c3n2)s1 was tested, and the TGI was 41.6 µM.
With O=C1C2SC34c5c2c2ccccc2n5CCC3CCCN14 (configuration not stated) the TGI was greater than 100 µM.
In the case of CC(=O)N(C(C)=O)c1ncc(-n2nc(-c3ccccc3)cc2-c2ccccc2)c(-c2ccccc2)n1, the TGI is reported as greater than 10 µM.
With CC(=O)Nc1sc(Br)cc1S(=O)(=O)c1ccc(Cl)cc1 the TGI was 56.3 µM.
O=C1Sc2cc3ccccc3cc2C(=O)Sc2ccc(Br)cc21 gave a TGI greater than 35 µM.
Work on O=C(/C=C/c1ccccc1)Oc1cccc(O)c1 yielded a TGI greater than 100 µM.
With O=C1c2ccccc2C(=O)c2c(NCC(O)CO)ccc(NCC(O)CO)c21 (configuration not stated) the TGI was greater than 100 µM.
With COc1cccc(C(=O)Oc2ccc(OS(=O)(=O)c3ccc(C)cc3)cc2)c1C#N the TGI was greater than 100 µM.
CC1(C)/C(=N\NC(N)=O)C2CCC1C2 (configuration not stated) showed a TGI greater than 100 µM.
With C/C=C/C(CC(O)(C(F)(F)F)C(F)(F)F)=N/NC(N)=S the TGI was greater than 10 µM.
With O=C1/C(=C/c2ccc(Br)s2)NC(=S)N1c1ccccc1 the TGI was greater than 100 µM.
In the case of Fc1ccc2c(c1)nc1n2C(c2c(Cl)cccc2Cl)SC1 (configuration not stated), the TGI is reported as 34.7 µM.
In the case of CC(C)C1=CC23CCC4C(C)(C(=O)O)CCCC4(C)C2CC1C1C(=O)N(c2ccc(Cc4ccc(N5C(=O)C6C7CC8C9(C)CCCC(C)(C(=O)O)C9CCC8(C=C7C(C)C)C6C5=O)cc4)cc2)C(=O)C13 (configuration not stated), the TGI is reported as 32.8 µM.
In the case of O=C(Nc1ccccc1)c1cc(S(=O)(=O)NC2=NC(c3ccccc3)c3cc(Cl)ccc3N2)c(SSc2cc(Cl)c(C(=O)Nc3ccccc3)cc2S(=O)(=O)NC2=NC(c3ccccc3)c3cc(Cl)ccc3N2)cc1Cl (configuration not stated), the TGI is reported as greater than 100 µM.
For CCOC(=O)Nc1[nH]cc(-c2ccccc2)c1C#N, the TGI was greater than 100 µM.
For COc1ccc(C2SC(N)=Nc3c2c(C)nn3C(=O)c2ccncc2)cc1OC (configuration not stated), the TGI was greater than 10 µM.
With COC(=O)c1c(O)ccc2c1c1c(n2Cc2cc(OC)cc(OC)c2)C(=O)c2ccccc2C1 the TGI was greater than 100 µM.
With O=C1Nc2cccc(Cl)c2/C1=C\c1c(Cl)nc2n1CCS2 the TGI was greater than 100 µM.
